In ChEMBL document CHEMBL1158992, “Application of two-dimensional nmr spectroscopy in the structural determination of marine natural products. Isolation and total structural assignment of 4-deoxyasbestinin diterpenes from the Caribbean gorgonian Briareum asbestinum” (J Nat Prod, 1991):
In brackets after ≈: the same amount, converted by molar mass. Activity calls are given as the source filed them. The rule behind the calls is not given here.

Experiments:
[1] = Cytotoxicity against CHOK1 cells; format: cell-based, Cricetulus griseus; settings: chinese hamster, CHO-K1 cells; read-out: ED50 (the source's name)
[2] = tested on: Klebsiella pneumoniae; experiment: Antimicrobial activity against Klebsiella pneumoniae; format: functional, organism-based
[3] = tested on: Human immunodeficiency virus; experiment: Antiviral activity against HIV; format: functional, organism-based

Row | SMILES | CC50 [1] | Activity [2] | Activity [3]
1 | CCCC(=O)O[C@H]1[C@@H]2[C@@H]3[C@@H](C[C@H]1C)[C@@H](C)CO[C@@]1(C)CC/C=C(/C)C[C@@H]2O[C@@H]31 | 3.55 µg/mL (≈ 9.09 µM) | Active | –
2 | CC(=O)O[C@H]1[C@@H]2[C@@H]3[C@@H](C[C@H]1C)[C@@H](C)CO[C@@]1(C)CC/C=C(/C)C[C@@H]2O[C@@H]31 | 4.82 µg/mL (≈ 13.3 µM) | Active | –
3 | CCCC(=O)O[C@H]1[C@@H]2[C@@H]3[C@@H](C[C@H]1C)[C@@H](C)CO[C@@]1(C)CC/C=C(\C)C[C@@H]2O[C@@H]31 [4-DEOXYASBESTININ A] | 3.35 µg/mL (≈ 8.58 µM) | Active | –
4 | CC(=O)O[C@H]1[C@@H]2[C@@H]3[C@@H](C[C@H]1C)[C@@H](C)CO[C@@]1(C)CC/C=C(\C)C[C@@H]2O[C@@H]31 [11-ACETOXY-4-DEOXYASBESTININ B] | 2.5 µg/mL (≈ 6.9 µM) | Active | inactive
